The text below walks through data of patent publication US8008311B2, “Methods and compostions utilizing quinazolinones” (Cytokinetics, Inc., priority 2003, dated 2011).

One may read the Ki as the dissociation constant of the complex between target and ligand, obtained from inhibition or displacement. Broadly, the GI50 is the concentration at which growth is held to half of that of the control.

The target in series [1] is T1, KSP motor domain (Homo sapiens, UniProt P52732).
T1 construct: 100 nM KSP motor domain, 50 μg/ml microtubules
T1 sequence (P52732 18-359 limits assumed): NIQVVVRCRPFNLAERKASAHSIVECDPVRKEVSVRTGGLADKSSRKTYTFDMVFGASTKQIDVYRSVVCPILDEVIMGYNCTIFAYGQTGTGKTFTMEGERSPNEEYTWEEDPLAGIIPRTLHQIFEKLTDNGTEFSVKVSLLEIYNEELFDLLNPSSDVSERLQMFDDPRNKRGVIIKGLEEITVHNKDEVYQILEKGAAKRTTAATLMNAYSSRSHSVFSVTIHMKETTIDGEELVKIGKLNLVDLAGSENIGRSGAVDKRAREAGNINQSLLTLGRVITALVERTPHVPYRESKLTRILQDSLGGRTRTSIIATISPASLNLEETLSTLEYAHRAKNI
Description: KSP ATPase assay (IC50 / Ki). It counts as biochemical. The conditions noted are these: for Ki: synthesized as single enantiomer. Here is the method: One measure of inhibition is IC50, defined as the concentration of the composition at which the activity of KSP is decreased by fifty percent. Preferred compositions have IC50's of less than about 1 mM, with preferred embodiments having IC50's of less than about 100 μM, with more preferred embodiments having IC50's of less than about 10 μM, with particularly preferred embodiments having IC50's of less than about 1 μM, and especially preferred embodiments having IC50's of less than about 100 nM, and with the most preferred embodiments having IC50's of less than about 10 nM. Measurement of IC50 is done using an ATPase assay.
The Ki for a compound is determined from the IC50 based on three assumptions. First, only one compound molecule binds to the enzyme and there is no cooperativity. […] Third, the enzymatic rate of the enzyme-inhibitor complex is zero. The rate (i.e., compound concentration) data are fitted to the equation: […]
Where V is the observed rate, Vmax is the rate of the free enzyme, I0 is the inhibitor concentration, E0 is the enzyme concentration, and Kd is the dissociation constant of the enzyme-inhibitor complex.
Measurement of a composition's IC50 for KSP activity uses an ATPase assay. The following solutions are used: Solution 1 consists of 3 mM phosphoenolpyruvate potassium salt (Sigma P-7127), 2 mM ATP (Sigma A-3377), 1 mM IDTT (Sigma D-9779), 5 μM paclitaxel (Sigma T-7402), 10 ppm antifoam 289 (Sigma A-8436), 25 mM Pipes/KOH pH 6.8 (Sigma P6757), 2 mM MgC12 (VWR JT400301), and 1 mM EGTA (Sigma E3889). Solution 2 consists of 1 mM NADH (Sigma N8129), 0.2 mg/ml BSA (Sigma A7906), pyruvate kinase 7 U/ml, L-lactate dehydrogenase 10 U/ml (Sigma P0294), 100 nM KSP motor domain, 50 μg/ml microtubules, 1 mM DTT (Sigma D9779), 5 μM paclitaxel (Sigma T-7402), 10 ppm antifoam 289 (Sigma A-8436), 25 mM Pipes/KOH pH 6.8 (Sigma P6757), 2 mM MgC12 (VWR JT4003-01), and 1 mM EGTA (Sigma E3889). Serial dilutions (8-12 two-fold dilutions) of the composition are made in a 96-well microtiter plate (Corning Costar 3695) using Solution 1. Following serial dilution each well has 50 μl of Solution 1. The reaction is started by adding 50 μl of solution 2 to each well. This may be done with a multichannel pipettor either manually or with automated liquid handling devices. The microtiter plate is then transferred to a microplate absorbance reader and multiple absorbance readings at 340 nm are taken for each well in a kinetic mode. The observed rate of change, which is proportional to the ATPase rate, is then plotted as a function of the compound concentration. For a standard IC50 determination the data acquired is fit by the following four parameter equation using a nonlinear fitting program (e.g., Grafit 4): […]
Where y is the observed rate and x the compound concentration.

Series [2] has as its system A549 cells. The conditions noted are these: cited from earlier work.
The subject of series [3] is SKOV3 tumor xenograft. The series is described as follows: SKOV3 tumor xenograft in nude mice. The series is classed as in vivo. The conditions noted are these: for Mice with Partial Tumor Shrinkage / Mortalities: 8 mice at start. Here is the method:
Female nude mice weighing approximately 20 g were implanted s.c. by trocar with fragments of human tumor carcinomas harvested from s.c. growing tumors in nude mice host. When the tumors were approximately 77 mg in size, the animals were pair matched into treatment and control groups. Each group contained 8 tumored mice, each of which was ear-tagged and followed individually throughout the experiment. Initial doses (10 mL/kg of a 66 mM Citrate buffer, pH 5.0/0.9% Saline/10% Tween 80 formulation of each test compound having a maximum concentration of 5 mg/mL) were given on Day 1 following pair matching, dosing at the levels and schedules indicated.
Mice were weighed twice weekly, and tumor measurements were taken by calipers twice weekly, starting on Day 1. These tumor measurements were converted to mg tumor weight by a well-known formula, W^2×L/2. The experiment was terminated when the control group tumor size reached an average of 1 gram. Upon termination, the mice were weighted, sacrificed and their tumors excised. Tumors were weighted and the mean treated tumor weight per group was calculated. In this model, the change in mean treated tumor weight/the change in mean control tumor weight×100% (ΔT/ΔC) was subtracted from 100% to give the tumor growth inhibition (TGI) for each group.

Series [4] concerns SKOV3 tumor xenograft. Description: SKOV3 tumor xenograft in nude mice. It counts as in vivo.
Series [5] deals with Skov-3 cells (human ovarian cancer). The series is described as follows: FACS analysis of cell cycle stage by DNA content. It counts as cell-based. The settings on record: 24 hours; 10 nM paclitaxel, 400 nM quinazolinone 1, 200 nM quinazolinone 2. Here is the method:
FACS analysis to determine cell cycle stage by measuring DNA content was performed as follows. Skov-3 cells (human ovarian cancer) were split 1:10 for plating in 10 cm dishes and grown to subconfluence with RPMI 1640 medium containing 5% fetal bovine serum (FBS). The cells were then treated with either 10 nM paclitaxel, 400 nM quinazolinone 1, 200 nM quinazolinone 2, or 0.25% DMSO (vehicle for compounds) for 24 hours. Cells were then rinsed off the plates with PBS containing 5 mM EDTA, pelleted, washed once in PBS containing 1% FCS, and then fixed overnight in 85% ethanol at 4° C. Before analysis, the cells were pelleted, washed once, and stained in a solution of 10 μg propidium iodide and 250 μg of ribonuclease (RNAse) A per milliliter at 37° C. for half an hour. Flow cytometry analysis was performed on a Becton-Dickinson FACScan, and data from 10,000 cells per sample was analyzed with Modfit software.

[6] abbreviates: R enantiomer, read-out: Ki (μM) R enantiomer.
[7] abbreviates: S enantiomer, read-out: Ki (μM) S enantiomer.
The mark [8] stands for this setting: enantiomer 1 from chiral chromatography, read-out: IC50 (μM) Enantiomer 1.
Setting [9] is: enantiomer 2 from chiral chromatography, read-out: IC50 (μM) Enantiomer 2.
The mark [10] stands for this setting: racemate, read-out: IC50 (μM) Racemate.
Where [11] appears, read: 80 mg/kg every 3 days × 4, i.v.
The mark [12] stands for this setting: 50 mg/kg every 3 days × 4, i.v.
[13] abbreviates: 20 mg/kg daily × 5, i.p., Tables A-D.

Values joined by “and” are separate entries in the source; they are usually repeats but may differ in a detail not shown here. Equal entries are not always repeated. Where two headings read alike, the source gives them in different places.

In the case of `CC(c1nc2ccccc2c(=O)n1Cc1ccccc1)N(CCN)C(=O)c1ccc(Br)cc1` (centres unmarked), the inhibition constant (Ki) in series [1] (setting [6]) is under 0.1 µM; in series [1] (setting [7]), 2 µM.

In the case of `CCC(c1nc2cc(Cl)ccc2c(=O)n1Cc1ccccc1)N(CCN)C(=O)c1ccc(Br)cc1` (centres unmarked), the inhibition constant (Ki) is under 0.05 µM in series [1] (setting [6]) and over 0.5 µM in series [1] (setting [7]).

Consider `CCC(c1nc2cc(Cl)ccc2c(=O)n1Cc1ccccc1)N(CCCN)C(=O)c1ccc(C)cc1` (racemic), for which the IC50 in series [1] (R isomer, read-out: R Isomer IC50) was under 0.05 µM; in series [1] (S isomer, read-out: S Isomer IC50), over 0.5 µM; in series [1] (racemic, read-out: Racemic I C50) it was under 0.05 µM.

On to `CCC(c1nc2ccccc2c(=O)n1Cc1ccccc1)N(CCN(C)C)C(=O)c1ccc(Br)cc1` (single isomer, unassigned), for which the figures for the IC50 in series [1] (setting [8]), in series [1] (setting [9]) and in series [1] (setting [10]) were 0.28 µM, 0.03 µM and 0.06 µM, respectively.

As to `CCC(c1nc2ccccc2c(=O)n1Cc1ccccc1)N(CCN(C)C)C(=O)c1cccc2ccccc12` (single isomer, unassigned), the IC50 in series [1] (setting [8]) is over 40 µM; in series [1] (setting [9]), 6.6 µM; in series [1] (setting [10]), 12.7 µM.

`CC(c1nc2ccccc2c(=O)n1Cc1ccccc1)N(CCN(C)C)C(=O)c1ccc(Br)cc1` (single isomer, unassigned): the IC50 is over 40 µM in series [1] (setting [8]), 1.3 µM in series [1] (setting [9]) and 2.6 µM in series [1] (setting [10]).

`O=c1[nH]cc(F)c(=O)[nH]1` [5-fluorouracil]: the GI50 in series [2] is 1000 nM.

Consider `CCC(c1nc2cc(Cl)ccc2c(=O)n1Cc1ccccc1)N(CCCN)Cc1ccc(Br)cc1` (centres unmarked) [Compound 1], for which, in series [3] (setting [11]), the “Maximum Weight Loss” value was “None”, the “Tumor Growth Inhibition” value came to 41.5%, the “Mice with Partial Tumor Shrinkage” value came out at 0 and the Mortalities worked out at 1. Also, the “Final Tumor Weight (Mean ± SEM)” value in series [4] (setting [11]) is 554.3 ± 76.8 mg.

On to `CCC(c1nc2cc(F)ccc2c(=O)n1Cc1ccccc1)N(CCCN)C(=O)c1ccc(C)cc1` (centres unmarked) [Compound 2], for which, in series [3] (setting [12]), the “Final Tumor Weight (Mean ± SEM)” value was 340.8 ± 93.0 mg, the “Maximum Weight Loss” value was “None”, the “Tumor Growth Inhibition” value stood at 81.5% and the “Mice with Partial Tumor Shrinkage” value is 0. This compound returned a Mortalities in series [3] (setting [12]) of 0.

With `CCC(c1nc2cc(Cl)ccc2c(=O)n1Cc1ccccc1)N(CC1CNC1)C(=O)c1ccc(C)cc1` (centres unmarked) [Compound 3], in series [3] (60 mg/kg daily × 5, i.v.), the “Maximum Weight Loss” value came to 2.76%, the “Tumor Growth Inhibition” value amounted to 48.3%, the “Mice with Partial Tumor Shrinkage” value worked out at 0 and the Mortalities worked out at 1. Moreover, the “Final Tumor Weight (Mean ± SEM)” value in series [4] (60 mg/kg daily × 5, i.v.) is 806.1 ± 163.8 mg.

Consider `CCC(c1nc2cc(Cl)ccc2c(=O)n1Cc1ccccc1)N(CCN)Cc1ccc(C)cc1` (centres unmarked) [Compound 4], for which, in series [3] (4 mg/kg weekly × 3, i.v.), the “Final Tumor Weight (Mean ± SEM)” value is given as 726.9 ± 147.2 mg, the “Maximum Weight Loss” value was 0.02%, the “Tumor Growth Inhibition” value is reported as 40.1% and the “Mice with Partial Tumor Shrinkage” value is reported as 0. The Mortalities in series [3] (4 mg/kg weekly × 3, i.v.) was found to be 1.

`CCC(c1nc2cc(Cl)ccc2c(=O)n1Cc1ccccc1)N(CCCN(C)C)C(=O)c1ccc(Br)cc1` (centres unmarked) [Compound 5]: in series [3] (25 mg/kg daily × 5, i.v.), the “Final Tumor Weight (Mean ± SEM)” value is reported as 405.6 ± 124.8 mg, the “Maximum Weight Loss” value is given as “None”, the “Mean % Tumor Shrinkage” value turned out to be 56.3% and the “Tumor Growth Inhibition” value turned out to be 71.0%. In series [3] (25 mg/kg daily × 5, i.v.), the “Mice with Partial Tumor Shrinkage” value is given as 1 and the Mortalities is listed as 0.

Regarding `CC(=O)O[C@H]1C(=O)[C@@]2(C)[C@H]([C@H](OC(=O)c3ccccc3)[C@]3(O)C[C@H](OC(=O)[C@H](O)[C@@H](NC(=O)c4ccccc4)c4ccccc4)C(C)=C1C3(C)C)[C@]1(OC(C)=O)CO[C@@H]1C[C@@H]2O` [Taxol, paclitaxel, reference compound], in series [5], the “shift of cell cycle stage (DNA content)” value is recorded as “caused a shift in the population of cells from a G0/G1 cell cycle stage (2n DNA content) to a G2/M cell cycle stage (4n DNA content)”. In series [3] (setting [13]), the “Maximum Weight Loss” value was 16.5% and 7.49% and 12.26% and 8.77%; the “Mean % Tumor Shrinkage” value is 27.9% and 43.5% and 44.4%. Moreover, in series [3] (20 mg/kg daily × 5, i.p., separate experiments Tables A-D), the “Tumor Growth Inhibition” value was 91.7% and 99.7% and 87.1% and 73.0%. In series [2], the GI50 was 4 nM.

Turning to `COc1cccc2c1C(=O)c1c(O)c3c(c(O)c1C2=O)C[C@@](O)(C(=O)CO)C[C@@H]3O[C@H]1C[C@H](N)[C@H](O)[C@H](C)O1` [doxorubicin], the GI50 in series [2] is 63 nM.

`NC(=O)NO` [hydroxyurea]: the GI50 in series [2] is 500000 nM.
